Results from ChEMBL document CHEMBL5113392, “Novel hybrid pyrrolidinedione-thiazolidinones as potential anticancer agents: Synthesis and biological evaluation” (Eur J Med Chem, 2022).
The source made the active and inactive calls. The rule behind the calls is not given here.

Columns and labels:
UO-31 = assay: Anticancer activity against human UO-31 cells assessed as inhibition of cell growth at 10 uM incubated for 48 hrs by SRB assay; format: functional; settings: UO-31, 48 h, values are per cent of control
NCI-H322M [1] = assay: Anticancer activity against human NCI-H322M cells assessed as growth inhibition incubated for 48 hrs by SRB assay; format: functional
NCI-H522 = assay: Anticancer activity against human NCI-H522 cells assessed as growth inhibition incubated for 48 hrs by SRB assay; format: functional
HT-29 [2] = assay: Anticancer activity against human HT-29 cells assessed as growth inhibition incubated for 48 hrs by SRB assay; format: functional
SF-539 [3] = assay: Anticancer activity against human SF-539 cells assessed as growth inhibition incubated for 48 hrs by SRB assay; format: functional
U-251 [4] = assay: Anticancer activity against human U-251 cells assessed as growth inhibition incubated for 48 hrs by SRB assay; format: functional
UACC-62 [5] = assay: Anticancer activity against human UACC-62 cells assessed as growth inhibition incubated for 48 hrs by SRB assay; format: functional
DU-145 [6] = assay: Anticancer activity against human DU-145 cells assessed as growth inhibition incubated for 48 hrs by SRB assay; format: functional
MCF7 = assay: Anticancer activity against human MCF7 cells assessed as growth inhibition incubated for 48 hrs by SRB assay; format: functional
MDA-MB-231 [7] = assay: Anticancer activity against human MDA-MB-231 cells assessed as growth inhibition incubated for 48 hrs by SRB assay; format: functional
BT-549 [8] = assay: Anticancer activity against human BT-549 cells assessed as growth inhibition incubated for 48 hrs by SRB assay; format: functional
[9] = Selectivity index, ratio of GI50 for human HaCaT cells to GI50 for human U-251 cells; format: toxicity; settings: HaCaT cells versus U-251 cells, read-out: RatioGI50
HOP-92 = assay: Anticancer activity against human HOP-92 cells assessed as total growth inhibition incubated for 48 hrs by SRB assay; format: functional
COLO 205 = assay: Anticancer activity against human COLO 205 cells assessed as total growth inhibition incubated for 48 hrs by SRB assay; format: functional
HT-29 [10] = assay: Anticancer activity against human HT-29 cells assessed as total growth inhibition incubated for 48 hrs by SRB assay; format: functional
SF-539 [11] = assay: Anticancer activity against human SF-539 cells assessed as total growth inhibition incubated for 48 hrs by SRB assay; format: functional
SK-MEL-2 [12] = assay: Anticancer activity against human SK-MEL-2 cells assessed as total growth inhibition incubated for 48 hrs by SRB assay; format: functional
UACC-257 = assay: Anticancer activity against human UACC-257 cells assessed as total growth inhibition incubated for 48 hrs by SRB assay; format: functional
OVCAR-3 = assay: Anticancer activity against human OVCAR-3 cells assessed as total growth inhibition incubated for 48 hrs by SRB assay; format: functional
PC-3 = assay: Anticancer activity against human PC-3 cells assessed as total growth inhibition incubated for 48 hrs by SRB assay; format: functional
MDA-MB-231 [13] = assay: Anticancer activity against human MDA-MB-231 cells assessed as total growth inhibition incubated for 48 hrs by SRB assay; format: functional
BT-549 [14] = assay: Anticancer activity against human BT-549 cells assessed as total growth inhibition incubated for 48 hrs by SRB assay; format: functional
CCRF-CEM = assay: Anticancer activity against human CCRF-CEM cells assessed as lethality incubated for 48 hrs by SRB assay; format: functional; settings: read-out: LC50 (the source's name)
K562 = assay: Anticancer activity against human K562 cells assessed as lethality incubated for 48 hrs by SRB assay; format: functional; settings: read-out: LC50 (the source's name)
A549 [15] = assay: Anticancer activity against human A549 cells assessed as lethality incubated for 48 hrs by SRB assay; format: functional; settings: read-out: LC50 (the source's name)
HOP-62 = assay: Anticancer activity against human HOP-62 cells assessed as lethality incubated for 48 hrs by SRB assay; format: functional; settings: read-out: LC50 (the source's name)
NCI-H226 = assay: Anticancer activity against human NCI-H226 cells assessed as lethality incubated for 48 hrs by SRB assay; format: functional; settings: read-out: LC50 (the source's name)
NCI-H322M [16] = assay: Anticancer activity against human NCI-H322M cells assessed as lethality incubated for 48 hrs by SRB assay; format: functional; settings: read-out: LC50 (the source's name)
HT-29 [17] = assay: Anticancer activity against human HT-29 cells assessed as lethality incubated for 48 hrs by SRB assay; format: functional; settings: read-out: LC50 (the source's name)
KM12 = assay: Anticancer activity against human KM12 cells assessed as lethality incubated for 48 hrs by SRB assay; format: functional; settings: read-out: LC50 (the source's name)
SW-620 = assay: Anticancer activity against human SW-620 cells assessed as lethality incubated for 48 hrs by SRB assay; format: functional; settings: read-out: LC50 (the source's name)
SF-268 = assay: Anticancer activity against human SF-268 cells assessed as lethality incubated for 48 hrs by SRB assay; format: functional; settings: read-out: LC50 (the source's name)
SF-539 [18] = assay: Anticancer activity against human SF-539 cells assessed as lethality incubated for 48 hrs by SRB assay; format: functional; settings: read-out: LC50 (the source's name)
SK-MEL-2 [19] = assay: Anticancer activity against human SK-MEL-2 cells assessed as lethality incubated for 48 hrs by SRB assay; format: functional; settings: read-out: LC50 (the source's name)
SK-MEL-28 = assay: Anticancer activity against human SK-MEL-28 cells assessed as lethality incubated for 48 hrs by SRB assay; format: functional; settings: read-out: LC50 (the source's name)
UACC-62 [20] = assay: Anticancer activity against human UACC-62 cells assessed as lethality incubated for 48 hrs by SRB assay; format: functional; settings: read-out: LC50 (the source's name)
NCI/ADR-RES = assay: Anticancer activity against human NCI/ADR-RES cells assessed as lethality incubated for 48 hrs by SRB assay; format: functional; settings: read-out: LC50 (the source's name)
TK-10 = assay: Anticancer activity against human TK-10 cells assessed as lethality incubated for 48 hrs by SRB assay; format: functional; settings: read-out: LC50 (the source's name)
DU-145 [21] = assay: Anticancer activity against human DU-145 cells assessed as lethality incubated for 48 hrs by SRB assay; format: functional; settings: read-out: LC50 (the source's name)
MDA-MB-231 [22] = assay: Anticancer activity against human MDA-MB-231 cells assessed as lethality incubated for 48 hrs by SRB assay; format: functional; settings: read-out: LC50 (the source's name)
Hs-578T = assay: Anticancer activity against human Hs-578T cells assessed as lethality incubated for 48 hrs by SRB assay; format: functional; settings: read-out: LC50 (the source's name)
Jurkat [23] = assay: Anticancer activity against human Jurkat cells assessed as cell growth inhibition incubated for 72 hrs by MTT assay; format: functional
A549 [24] = assay: Anticancer activity against human A549 cells assessed as cell growth inhibition incubated for 72 hrs by MTT assay; format: functional
U-251 [25] = assay: Anticancer activity against human U-251 cells assessed as cell growth inhibition incubated for 72 hrs by MTT assay; format: functional
[26] = Selectivity index, ratio of GI50 for human HaCaT cells to GI50 for human HeLa cells; format: toxicity; settings: HaCaT cells versus HeLa cells, read-out: RatioGI50
Jurkat [27] = assay: Induction of morphological changes in human Jurkat cells assessed as chromatin condensation incubated for 24 hrs by Hoechst 33258 and propidium iodide staining based fluorescence microscopy; format: functional, cell-based
Jurkat [28] = assay: Induction of morphological changes in human Jurkat cells assessed as chromatin fragmentation incubated for 24 hrs by Hoechst 33258 and propidium iodide staining based fluorescence microscopy; format: functional, cell-based
Lymphocyte = assay: Induction of morphological changes in mitogen activated human peripheral blood lymphocytes assessed as increase in number of single cells incubated for 24 hrs by Hoechst 33258 and propidium iodide staining based fluorescence microscopy; format: toxicity, cell-based
Salmon testes DNA = assay: Displacement of methyl green from salmon sperm DNA at 1 uM measured after 2 hrs by fluorescence plate reader method relative to control; format: nucleic-acid assay; settings: Salmo salar

O=C1CC(N2C(=O)/C(=C/C(Cl)=C/c3ccc([N+](=O)[O-])cc3)SC2=S)C(=O)N1c1ccc(O)cc1 (centres undefined)
growth, % of control at 10 µM (UO-31): -75.2% | GI50 (NCI-H322M [1]): 2.34 µM | GI50 (NCI-H522): 1.86 µM | GI50 (HT-29 [2]): 0.847 µM | GI50 (SF-539 [3]): 1.72 µM | GI50 (U-251 [4]): 0.597 µM | GI50 (UACC-62 [5]): 1.67 µM | GI50 (DU-145 [6]): 1.72 µM | GI50 (MCF7): 1.21 µM | GI50 (MDA-MB-231 [7]): 2.14 µM | GI50 (BT-549 [8]): 2.03 µM | selectivity ratio [9]: 66.9 | TGI (HOP-92): 3.72 µM | TGI (COLO 205): 5.04 µM | TGI (HT-29 [10]): 8.78 µM | TGI (SF-539 [11]): 3.81 µM | TGI (SK-MEL-2 [12]): 7.83 µM | TGI (UACC-257): 9.12 µM | TGI (OVCAR-3): 1.96 µM | TGI (PC-3): 2.87 µM | TGI (MDA-MB-231 [13]): 5.06 µM | TGI (BT-549 [14]): 4.21 µM | CC50 (CCRF-CEM): > 100 µM | CC50 (K562): > 100 µM | CC50 (A549 [15]): 50.8 µM | CC50 (HOP-62): > 100 µM | CC50 (NCI-H226): 50.3 µM | CC50 (NCI-H322M [16]): 24.3 µM | CC50 (HT-29 [17]): > 100 µM | CC50 (KM12): 15.8 µM | CC50 (SW-620): 6.3 µM | CC50 (SF-268): 47.1 µM | CC50 (SF-539 [18]): 8.43 µM | CC50 (SK-MEL-2 [19]): 54.3 µM | CC50 (SK-MEL-28): 9.05 µM | CC50 (UACC-62 [20]): 6.86 µM | CC50 (NCI/ADR-RES): > 100 µM | CC50 (TK-10): 7.46 µM | CC50 (DU-145 [21]): 6.62 µM | CC50 (MDA-MB-231 [22]): 15.9 µM | CC50 (Hs-578T): > 100 µM | GI50 (Jurkat [23]): 1.3 µM | GI50 (A549 [24]): 7.25 µM | GI50 (U-251 [25]): 1.1 µM | selectivity ratio [26]: 12 | Activity (Jurkat [27]): Active | Activity (Jurkat [28]): Active | Activity (Lymphocyte): Toxic | Activity (Salmon testes DNA): 1.4%
